Laboratory results as given in patent publication EP3650451A1, “COMPOUNDS AND THEIR USES AS FLUORESCENT PROBES” (Consejo Superior de Investigaciones Cientificas, priority 2017, dated 2019).

Experiments:
[1] = Stability in water: time evolution in D2O followed by 1H NMR (hydrolysis); assay type: physicochemical; settings: 15 mM solution in D2O at 25 °C, read-out: t1/2 (hydrolysis) (converted)
Method: One of the critical factors that conditions the viability and applicability of functional dyes 3 and 4 as fluorescent mitochondrial probes is their stability in water, since these compounds contain two potentially labile B-O bonds linking the fluorophore with the carnitine substituent. This stability was determined analyzing the time evolution of 3 and 4 in a 15 mM solution in D2O at 25 °C using ^1H NMR. This technique makes it possible not only to define their stability, but also to identify the possible degradation products (Diagram 2). Both probes are hydrolyzed, generating free carnitine and the corresponding 4,4-dihydroxy-BODIPY derivatives 5 and 6. [drawing 8]
Compound 3 is quickly hydrolyzed (t1/2 = 10 min); however, the greater substitution of the tetramethylated derivative in 4 gives it greater stability (t1/2 = 6 h), which promotes its use as a fluorescent marker in live cells. Contrary to what might be believed, the generation of free carnitine and of the corresponding BODIPY derivatives 5 and 6 at physiological pH is, indeed, an advantage for its application in cell labels. Thus, (R)-carnitine is incorporated into the mitochondrial metabolism, while the boron of the hydrolyzed BODIPY can covalently bond to poly-hydroxilated molecules (for example, saccharides and glycoproteins), generating cyclic boronic esters. […]

[2] = Time evolution of the photophysical properties in water; assay type: physicochemical; set-up: key to φ: fluorescence quantum yield, fraction (0.65 = 65%); settings: for kfl / knr / εmax / λab / λfl / τ / φ: water
Method: Indeed, the fluorescence yield remains constant for 7 hours. However, due to the oligomerization of hydrolysis product 6 and to the ensuing precipitation of the resulting oligomers, fluorescence efficiency gradually decreases in 24 hours, although it maintains a quantum yield of 65%. […] Indeed, the diffusion of the dye outside of the cell organelle, which occurs in dyes not covalently bonded thereto, is one of the main problems in the development of fluorescent biological markers because it entails a significant reduction in fluorescent efficiency and, thus, in the accuracy and reproducibility of the experiments. The rational design of probe 4 must, therefore, prevent this loss of fluorescence signal and improve the quality and accuracy of the measurements, thereby enhancing its applicability as a biological probe.

HeLa = test: Kinetics of cell labeling by flow cytometry; assay type: cell-based, human; settings: 50 nM, staining times 5, 15 and 30 min
Method: (§1) The cell assays were carried out on two human cell lines: SCC38 and HeLa. The SCC38 line is derived from human laryngeal epidermoid carcinoma patients, while HeLa, the first human cell line established in culture, is derived from cervical cancer. The culture medium used for both cell lines was DMEM (Dulbecco's Modified Eagle's Medium) supplemented with 10% of fetal bovine serum (FBS), 100 U/mL of penicillin, 200 µg/mL of streptomycin, 100 µmol/L of non-essential amino acids and 2 mmol/L of glutamine. The cultures were incubated at 37 °C and 5% of CO2.
(§2) The kinetics of cell labeling with 4 was studied by flow cytometry with the SCC38 and HeLa cell lines, using MitoTracker® Red as a control marker, both at a concentration of 50 nM. The staining times studied were 5, 15, 30 and 45 minutes. After staining, the medium was removed, washed with PBS, trypsinized and the pellet was resuspended in 500 µL of PBS and introduced in the cytometer after filtration. A Beckman Coulter Cytomics FC500 Flow Cytometry Analyzer was used (Scientific-Technical Services, Universidad de Oviedo). Part of the resuspended cells were also plated and observed under the microscope.

SCC38 = test: Kinetics of cell labeling by flow cytometry; assay type: cell-based, human
Method: as §1, §2

## CC1=CC(C)=[N+]2C1=C(c1c(C)cc(C)cc1C)c1c(C)cc(C)n1[B-]21OC(=O)C[C@H](C[N+](C)(C)C)O1 (stereo partly shown) [Compound 4]
[1]
  half-life at 15000 µM: 6 h
[2]; in water
  effect of hydrolysis on fluorescence emission: does not entail a significant reduction in its fluorescence emission
  time for which the fluorescence yield remains constant: 7 h
[2]; in water, in 24 hours
  quantum yield: 65%
[2]; time 00:00 (hours:min)
  kfl: 1.14 10^8s^-1
  knr: 0.23 10^8s^-1
  εmax: 3.8 10^4 M^-1 CM^-1
  λab: 499 nm
  λfl: 511 nm
  τ: 7.30 ns
  φ: 0.83
[2]; time 00:10 (hours:min)
  kfl: 1.14 10^8s^-1
  knr: 0.24 10^8s^-1
  εmax: 3.8 10^4 M^-1 CM^-1
  λab: 498 nm
  λfl: 511 nm
  τ: 7.25 ns
  φ: 0.82
[2]; time 00:25 (hours:min)
  kfl: 1.14 10^8s^-1
  knr: 0.25 10^8s^-1
  εmax: 3.8 10^4 M^-1 CM^-1
  λab: 498 nm
  λfl: 511 nm
  τ: 7.20 ns
  φ: 0.82
[2]; time 00:50 (hours:min)
  kfl: 1.16 10^8s^-1
  knr: 0.24 10^8s^-1
  εmax: 3.8 10^4 M^-1 CM^-1
  λab: 498 nm
  λfl: 509 nm
  τ: 7.15 ns
  φ: 0.83
[2]; time 01:20 (hours:min)
  kfl: 1.17 10^8s^-1
  knr: 0.25 10^8s^-1
  εmax: 3.8 10^4 M^-1 CM^-1
  λab: 498 nm
  λfl: 509 nm
  τ: 7.05 ns
  φ: 0.83
[2]; time 02:00 (hours:min)
  kfl: 1.18 10^8s^-1
  knr: 0.25 10^8s^-1
  εmax: 3.8 10^4 M^-1 CM^-1
  λab: 497 nm
  λfl: 509 nm
  τ: 7.00 ns
  φ: 0.83
[2]; time 03:00 (hours:min)
  kfl: 1.18 10^8s^-1
  knr: 0.26 10^8s^-1
  εmax: 3.8 10^4 M^-1 CM^-1
  λab: 497 nm
  λfl: 509 nm
  τ: 6.95 ns
  φ: 0.82
[2]; time 04:00 (hours:min)
  kfl: 1.19 10^8s^-1
  knr: 0.26 10^8s^-1
  εmax: 3.8 10^4 M^-1 CM^-1
  λab: 497 nm
  λfl: 509 nm
  τ: 6.90 ns
  φ: 0.82
[2]; time 05:00 (hours:min)
  kfl: 1.22 10^8s^-1
  knr: 0.26 10^8s^-1
  εmax: 3.8 10^4 M^-1 CM^-1
  λab: 497 nm
  λfl: 508 nm
  τ: 6.80 ns
  φ: 0.82
[2]; time 06:00 (hours:min)
  kfl: 1.23 10^8s^-1
  knr: 0.26 10^8s^-1
  εmax: 3.8 10^4 M^-1 CM^-1
  λab: 496 nm
  λfl: 508 nm
  τ: 6.70 ns
  φ: 0.83
[2]; time 07:00 (hours:min)
  kfl: 1.24 10^8s^-1
  knr: 0.26 10^8s^-1
  εmax: 3.8 10^4 M^-1 CM^-1
  λab: 496 nm
  λfl: 508 nm
  τ: 6.65 ns
  φ: 0.83
[2]; time 24:00 (hours:min)
  kfl: 1.03 10^8s^-1
  knr: 0.54 10^8s^-1
  εmax: 3.7 10^4 M^-1 CM^-1
  λab: 496 nm
  λfl: 507 nm
  τ: 6.50 ns
  φ: 0.65
HeLa
  change of staining intensity with incubation time: clearly increased in intensity with incubation time
SCC38; SCC38, 50 nM, staining times 5, 15 and 30 min
  change of staining intensity with incubation time: clearly increased in intensity with incubation time
SCC38; new cytometry experiment, 45 min versus 30 min, cell line not stated
  labeling intensity at longer staining time: even more intense than with a time of 30 minutes
